{"source": "paper PMC3210175", "about": "“8-Modified-2′-Deoxyadenosine Analogues Induce Delayed Polymerization Arrest during HIV-1 Reverse Transcription” (PLoS ONE, 2011)", "key": {"HIV-1 RT [1]": {"target": "T1, HIV-1 RT (Human immunodeficiency virus type 1 group M subtype B, UniProt P04585, E1065Q)", "T1 construct": "helix αH in the thumb domain of the p66 subunit of HIV-1 RT; made in house", "assay": "(+) strand DNA synthesis assay (DCT in 31-mer DNA template, 18-mer DNA primer)", "format": "biochemical", "conditions": "analogue in 31-mer DNA template; RT 10 or 30 nM", "text": "(§1) Viral RNA, comprising the first 311 nucleotides of the HIV-1 genomic RNA (Mal isolate) was in vitro transcribed and purified as previously described. 18-, 19 and 31-mer DNA oligodeoxynucleotides containing the modified 2′-dA analogues respectively at 3′ end, at the penultimate position of 3′ end and at a distance of 12 nucleotides from their 5′ end were chemically synthesized and purified as described above (Figure 5). Unmodified and modified 18- and 19-mer primers were labelled at their 5′ end with [γ-^32]ATP using phage T4 polynucleotide kinase and purified on 8% denaturing polyacrylamide gels. RNase H (−) reverse transcriptase bearing the E478Q mutation that abolishes RNase H activity (RT^EQ) was expressed and purified according to a method adapted from.\n(§2) Primer/template (P/T) complexes, at a final concentration of 300 nM, were formed by incubating the primer with a 3 fold excess of either 1–311 viral RNA or modified 31-mer DNA oligonucleotide in water for 2 min at 90°C, cooling on ice for 2 min and incubating for 20 min at 50°C in 100 mM NaCl.\nThirty one-mer DNA templates, containing or not a modified 2′-deoxyadenosine were hybridized to an 18-mer DNA primer (Figure 5) and subsequent DNA synthesis and analysis of the reaction products were performed as described above."}, "HIV-1 RT [2]": {"target": "T1, HIV-1 RT", "assay": "(−) strand \"n+6\" DNA synthesis assay (ddATP instead of dATP; DCT-modified 18- or 19-mer primer on 1–311 HIV-1 MAL RNA template)", "format": "biochemical", "conditions": "for Delayed chain termination (accumulation of n+3 products): DCT at penultimate position of 19-mer primer, both 10 and 30 nM RT; for Inhibition of (−) strand DNA synthesis (DCT in the primer), DCT at 3′-end 18 mer: \"n+6\" DNA synthesis assay, analogue incorporated at 3′ end of 18-mer DNA primer", "text": "as §1, §2\nTen nM P/T (with the 311 vRNA as template) were pre-incubated with 10 or 30 nM of RT at 37°C for 4 min. Reactions were initiated by the addition of 50 µM of each of the four dNTPs and stopped at various times with equal amounts of buffer containing formamide. The same procedure was used for synthesis of “+6” DNA except that ddATP was substituted for dATP. Reaction products were denatured for 2 min at 90°C prior to separation on an 8% polyacrylamide denaturing gel and quantified using a Fuji FLA-5100 analyser and the Image Gauge program."}, "[3]": {"assay": "Cytotoxicity on uninfected cells, MTT assay", "format": "cell-based", "conditions": "human, uninfected CEM-SS cells, mean ± SD, four independent experiments", "method": "(§3) We thus addressed the antiviral activity of our nucleoside analogues in cell culture. All the synthesized nucleoside analogues (2a–g, 3, 7, 8 and 9) were tested for their ability to reduce HIV-1 LAI in CEM-SS cells. Viral replication was monitored by measuring the RT activity in the cell culture supernatants, while compound's cytotoxicity on uninfected cells was assessed using an MTT assay.\n(§4) The activity of the nucleoside analogues 2a–g, 3, 7, 8 and 9 on HIV-1 replication was determined by measuring the RT activity associated with virus particles released from CEM-SS cells infected with HIV-1 Lai. The 50% cytotoxic concentration (CC50) was evaluated in parallel to the 50% inhibitory concentration (IC50)[37]."}, "[4]": {"tested_on": "HIV-1 LAI in CEM-SS cells", "assay": "HIV-1 inhibition in cell culture (RT activity in cell culture supernatants)", "format": "cell-based", "conditions": "mean ± SD, four independent experiments", "method": "as §3, §4"}, "HIV-1 RT [5]": {"target": "T1, HIV-1 RT", "assay": "DNA-directed DNA synthesis with modified 19-mer primer on 41-mer DNA template (Figure S2)", "format": "biochemical", "conditions": "8-MeS-dAMP at penultimate position of 19-mer primer, 10 or 90 nM RT", "text": "Supplementary file pone.0027456.s002.docx: Figure S2 Comparative effect of 8-MeS-dA on (−) and (+) strand DNA synthesis. A. Templates and primers used for the study. The template is either 1–311 HIV-1 MAL RNA, for which part of the sequence is shown, or a 41-mer DNA oligonucleotide. The primer is a 19- mer DNA strictly complementary to the central part of the template. X corresponds to either dAMP or 8-MeS-dAMP inserted at the penultimate position of the primer. “n” corresponds to the position of the modified nucleotide. B. Time course of in vitro DNA synthesis using 10 nM of primer/template complexes preincubated with either 10 or 90 nM of HIV-1 RT. Polymerization was initiated by the addition of 20 µM of dTTP, dGTP and dCTP as well as 50 µM of ddATP for the RNA-directed synthesis or 20 µM of dATP, dTTP, dCTP and 50 µM of ddGTP for the DNA directed synthesis. Reactions were stopped after 15, 60 and 120 min. (+6) and (+7) refer to the 6th and 7th nucleotides to be added with respect to the position of the modified nucleotide analogue. (DOCX) Click here for additional data file."}, "CEM-SS cells": {"tested_on": "CEM-SS cells", "assay": "Cytotoxicity on uninfected cells, MTT assay", "format": "cell-based", "conditions": "mean ± SD, four independent experiments", "method": "as §3, §4"}, "HIV-1 RT [6]": {"target": "T1, HIV-1 RT", "assay": "(−) strand strong-stop DNA synthesis assay (DCT-modified 19-mer DNA primer on 1–311 HIV-1 MAL RNA template)", "format": "biochemical", "conditions": "10 nM RT, full-length product", "text": "as §1, §2\nTen nM P/T (with the 311 vRNA as template) were pre-incubated with 10 or 30 nM of RT at 37°C for 4 min. […] Reaction products were denatured for 2 min at 90°C prior to separation on an 8% polyacrylamide denaturing gel and quantified using a Fuji FLA-5100 analyser and the Image Gauge program."}, "[7]": {"conditions": "Human immunodeficiency virus 1, CEM-SS, read-out: EC50"}}, "note": "“Also recorded” adds a separate entry of the source. Like-named read-outs stand apart in the source and are kept apart here.", "data": [{"smiles": "CSc1nc2c(N)ncnc2n1[C@H]1C[C@H](O)[C@@H](CO)O1", "note": "[compound 3, 8-Methylthio-2′-deoxyadenosine]", "values": [{"measurement": "Effect on primer extension pattern / enzyme pausing in (+) strand DNA synthesis", "setting": "HIV-1 RT [1]", "value": "enzyme pausing is obvious at positions n+1 and mainly n+2"}, {"measurement": "Delayed chain termination (accumulation of n+3 products)", "setting": "HIV-1 RT [2]", "value": "clearly induced a delayed chain termination"}, {"measurement": "CC50", "setting": "[3]", "value": "> 100", "unit": "µM"}, {"measurement": "EC50", "setting": "[4]; [7]", "value": "> 100", "unit": "µM"}, {"measurement": "Delayed chain termination with DNA rather than RNA as template", "setting": "HIV-1 RT [5]", "value": "did not act as a delayed chain terminator"}]}, {"smiles": "CCN(C)c1nc2c(N)ncnc2n1[C@H]1C[C@H](O)[C@@H](CO)O1", "note": "[2b, 8-Ethylmethylamino-2'-deoxyadenosine]", "values": [{"measurement": "Effect on primer extension pattern / enzyme pausing in (+) strand DNA synthesis", "setting": "HIV-1 RT [1]", "value": "enzyme pausing is obvious at positions n+1 and mainly n+2"}, {"measurement": "Inhibition of (−) strand DNA synthesis (DCT in the primer), DCT at 3′-end 18 mer", "setting": "HIV-1 RT [2]; 10 nM RT", "value": "immediate chain terminator; also recorded: termination"}, {"measurement": "Inhibition of (−) strand DNA synthesis (DCT in the primer), DCT at 3′-end 18 mer", "setting": "HIV-1 RT [2]; 30 nM RT", "value": "immediate chain terminator; also recorded: termination"}, {"measurement": "Delayed chain termination (accumulation of n+3 products)", "setting": "HIV-1 RT [2]", "value": "clearly induced a delayed chain termination"}, {"measurement": "CC50", "setting": "[3]", "value": "> 100", "unit": "µM"}, {"measurement": "EC50", "setting": "[4]; [7]", "value": "> 100", "unit": "µM"}]}, {"smiles": "CC(C)Nc1nc2c(N)ncnc2n1[C@H]1C[C@H](O)[C@@H](CO)O1", "note": "[2f, 8-iPropyl-amino-2'-deoxyadenosine]", "values": [{"measurement": "Effect on primer extension pattern / enzyme pausing in (+) strand DNA synthesis", "setting": "HIV-1 RT [1]", "value": "enzyme pausing is obvious at positions n+1 and mainly n+2"}, {"measurement": "Delayed chain termination (accumulation of n+3 products)", "setting": "HIV-1 RT [2]", "value": "clearly induced a delayed chain termination"}, {"measurement": "CC50", "setting": "[3]", "value": 81, "unit": "µM"}, {"measurement": "CC50", "setting": "CEM-SS cells", "value": "81.3 ± 6.1", "unit": "µM"}, {"measurement": "EC50", "setting": "[4]; [7]", "value": 14, "unit": "µM"}, {"measurement": "EC50", "setting": "[4]; listed as 8-iPr-N-dA", "value": "moderate anti-HIV-1 activity"}, {"measurement": "EC50", "setting": "[4]; read-out: EC50", "value": "14.2 ± 1.9", "unit": "µM"}]}, {"smiles": "Nc1ncnc2c1nc(N1CCCCC1)n2[C@H]1C[C@H](O)[C@@H](CO)O1", "note": "[2e, 8-Piperidin-2'-deoxyadenosine]", "values": [{"measurement": "CC50", "setting": "[3]", "value": "> 100", "unit": "µM"}, {"measurement": "EC50", "setting": "[4]; [7]", "value": "> 100", "unit": "µM"}]}, {"smiles": "CCc1nc2c(N)ncnc2n1[C@H]1C[C@H](O)[C@@H](CO)O1", "note": "[compound 9, 8-Ethyl-2′-deoxyadenosine]", "values": [{"measurement": "Effect on primer extension pattern / enzyme pausing in (+) strand DNA synthesis", "setting": "HIV-1 RT [1]", "value": "enzyme pausing is obvious at positions n+1 and mainly n+2"}, {"measurement": "CC50", "setting": "[3]", "value": "> 100", "unit": "µM"}, {"measurement": "EC50", "setting": "[4]; [7]", "value": "> 100", "unit": "µM"}]}, {"smiles": "CCN(CC)c1nc2c(N)ncnc2n1[C@H]1C[C@H](O)[C@@H](CO)O1", "note": "[2c, 8-Diethylamino-2'-deoxyadenosine]", "values": [{"measurement": "CC50", "setting": "[3]", "value": "> 100", "unit": "µM"}, {"measurement": "EC50", "setting": "[4]; [7]", "value": "> 100", "unit": "µM"}]}, {"smiles": "C=Cc1nc2c(N)ncnc2n1[C@H]1C[C@H](O)[C@@H](CO)O1", "note": "[compound 8, 8-Vinyl-2′-deoxyadenosine]", "values": [{"measurement": "Effect on primer extension pattern / enzyme pausing in (+) strand DNA synthesis", "setting": "HIV-1 RT [1]", "value": "enzyme pausing is obvious at positions n+1 and mainly n+2"}, {"measurement": "CC50", "setting": "[3]", "value": "> 100", "unit": "µM"}, {"measurement": "EC50", "setting": "[4]; [7]", "value": "> 100", "unit": "µM"}]}, {"smiles": "CN(C)c1nc2c(N)ncnc2n1[C@H]1C[C@H](O)[C@@H](CO)O1", "note": "[2a, 8-Dimethylamino-2'-deoxyadenosine]", "values": [{"measurement": "CC50", "setting": "[3]", "value": "> 100", "unit": "µM"}, {"measurement": "EC50", "setting": "[4]; [7]", "value": "> 100", "unit": "µM"}]}, {"smiles": "NC(=O)c1nc2c(N)ncnc2n1[C@H]1C[C@H](O)[C@@H](CO)O1", "note": "[compound 7, 8-Carbamoyl-2′-deoxyadenosine]", "values": [{"measurement": "CC50", "setting": "[3]", "value": "> 100", "unit": "µM"}, {"measurement": "EC50", "setting": "[4]; [7]", "value": "> 100", "unit": "µM"}]}, {"smiles": "CC(C)CNc1nc2c(N)ncnc2n1[C@H]1C[C@H](O)[C@@H](CO)O1", "note": "[2g, 8-iButyl-amino-2'-deoxyadenosine]", "values": [{"measurement": "Effect on primer extension pattern / enzyme pausing in (+) strand DNA synthesis", "setting": "HIV-1 RT [1]", "value": "does not affect this pattern"}, {"measurement": "Delayed chain termination (accumulation of n+3 products)", "setting": "HIV-1 RT [2]", "value": "did not impact"}, {"measurement": "Inhibition of (−) strand DNA synthesis (DCT in the primer), DCT at penultimate position 19 mer", "setting": "HIV-1 RT [6]", "value": "same pattern as the unmodified primer"}, {"measurement": "CC50", "setting": "[3]", "value": "> 100", "unit": "µM"}, {"measurement": "EC50", "setting": "[4]; [7]", "value": "> 100", "unit": "µM"}]}, {"smiles": "Nc1ncnc2c1nc(N1CCCC1)n2[C@H]1C[C@H](O)[C@@H](CO)O1", "note": "[2d, 8-Pyrrolidin-2'-deoxyadenosine]", "values": [{"measurement": "CC50", "setting": "[3]", "value": "> 100", "unit": "µM"}, {"measurement": "EC50", "setting": "[4]; [7]", "value": "> 100", "unit": "µM"}]}]}
